{"source": "paper PMC9569640", "about": "“Structural Insights into the Binding Propensity of Human SHIP2 SH2 to Oncogenic CagA Isoforms from Helicobacter pylori” (International Journal of Molecular Sciences, 2022)", "key": {"[1]": {"target": "T1, SHIP2-SH2 (wild type) (Homo sapiens, UniProt O15357)", "T1 construct": "The SHIP2 SH2 domain (hereafter represented by SHIP2-SH2); made in house", "T1 sequence (O15357 21-117 limits assumed)": "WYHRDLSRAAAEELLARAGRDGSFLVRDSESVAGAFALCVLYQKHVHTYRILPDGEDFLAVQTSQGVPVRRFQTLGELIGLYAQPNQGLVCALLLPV", "assay": "Fluorescence polarization binding of FAM-labeled phosphopeptides to wild-type SHIP2-SH2", "settings": "FP assay; N-terminally FAM-labeled phosphopeptide 100 nM; 20 mM Tris, 100 mM NaCl, 10 mM DTT, 0.02% NaN3, pH 7.5; each reaction repeated three times, averaged; ± standard error of curve fitting; SEM; read-out: dissociation constant (KD) for wild-type SHIP2-SH2", "description": "(§1) Expression and purification of wild-type SHIP2-SH2 and its mutants including R28A, S49A, E50A, S51A, R70A, S84A and Q107A were carried out using the previously described method, and circular dichroism (CD) spectra were collected to confirm no obvious secondary structure change of the mutants. The purified proteins were concentrated to a final concentration of 0.2 mM for NMR experiments in the NMR buffer containing 90% H2O/10% D2O (v/v), 20 mM Tris, 100 mM NaCl, 10 mM DTT and 0.02% NaN3 at pH 7.5. Peptides derived from the four types of EPIYA motifs were synthesized by GL Biochem Ltd. (Shanghai, China). Tyr-phosphorylated peptides included: 8-mer (E-P-I-pY-A-K-V-N) and 13-mer (E-N-E-P-I-pY-A-K-V-N-K-K-K) EPIYA-A; 8-mer (E-P-I-pY-A-Q-V-A) and 13-mer (P-E-E-P-I-pY-A-Q-V-A-K-K-V) EPIYA-B; and 8-mer EPIYA-CD (E-P-I-pY-A-T-I-D), 13-mer EPIYA-C (S-P-E-P-I-pY-A-T-I-D-D-L-G) and 13-mer EPIYA-D (S-P-E-P-I-pY-A-T-I-D-F-D-E). The purities of the peptides were determined to be above 98% by high performance liquid chromatography (HPLC) and the molecular weights were confirmed by electrospray ionization mass spectrometry (ESI-MS).\n(§2) The used phosphopeptides for different versions of CagA EPIYA A/B/C/D motifs were labeled with FAM at the N-terminal end and dissolved in a buffer containing 20 mM Tris, 100 mM NaCl, 10 mM DTT and 0.02% NaN3, at pH 7.5. The peptide concentration was kept at 100 nM, while wild-type SHIP2-SH2 and its mutants were serially diluted with the concentrations ranging from micromolar to nanomolar, and then mixed with the peptide, respectively. FP values of FAM-labeled peptides bound by SHIP2-SH2 were measured using a SpectraMax i3x multi-mode plate reader (Molecular Devices) by recording the excitation at 485 nm and emission at 528 nm. Each binding reaction was repeated three times, and the polarization values were averaged (given in units of mP). The averaged polarization value of each titration point was subtracted from that of the free peptide to obtain the final value. The dissociation constants (KD) were calculated using the final polarization value of each titration point as previously described."}, "[2]": {"target": "T2, SHIP2-SH2 R28A (Homo sapiens, UniProt O15357, R28A)", "T2 construct": "The SHIP2 SH2 domain (hereafter represented by SHIP2-SH2); made in house", "T2 sequence (O15357 21-117 R28A limits assumed)": "T1 sequence (O15357 21-117 limits assumed) with R8A", "assay": "Fluorescence polarization binding, SHIP2-SH2 mutant R28A", "settings": "FP assay; FAM-labeled 13-mer phosphopeptide 100 nM; pH 7.5; n = 3 averaged; ± standard error of fitting; SEM; read-out: dissociation constant (KD) for SHIP2-SH2 R28A", "description": "as §1, §2"}, "[3]": {"target": "T3, SHIP2-SH2 S49A (Homo sapiens, UniProt O15357, S49A)", "T3 construct": "The SHIP2 SH2 domain (hereafter represented by SHIP2-SH2); made in house", "T3 sequence (O15357 21-117 S49A limits assumed)": "T1 sequence (O15357 21-117 limits assumed) with S29A", "assay": "Fluorescence polarization binding, SHIP2-SH2 mutant S49A", "settings": "FP assay; FAM-labeled 13-mer phosphopeptide 100 nM; pH 7.5; n = 3 averaged; ± standard error of fitting; SEM; read-out: dissociation constant (KD) for SHIP2-SH2 S49A", "description": "as §1, §2"}, "[4]": {"target": "T4, SHIP2-SH2 E50A (Homo sapiens, UniProt O15357, E50A)", "T4 construct": "The SHIP2 SH2 domain (hereafter represented by SHIP2-SH2); made in house", "T4 sequence (O15357 21-117 E50A limits assumed)": "T1 sequence (O15357 21-117 limits assumed) with E30A", "assay": "Fluorescence polarization binding, SHIP2-SH2 mutant E50A", "settings": "FP assay; FAM-labeled 13-mer phosphopeptide 100 nM; pH 7.5; n = 3 averaged; ± standard error of fitting; SEM; read-out: dissociation constant (KD) for SHIP2-SH2 E50A", "description": "as §1, §2"}, "[5]": {"target": "T5, SHIP2-SH2 S51A (Homo sapiens, UniProt O15357, S51A)", "T5 construct": "The SHIP2 SH2 domain (hereafter represented by SHIP2-SH2); made in house", "T5 sequence (O15357 21-117 S51A limits assumed)": "T1 sequence (O15357 21-117 limits assumed) with S31A", "assay": "Fluorescence polarization binding, SHIP2-SH2 mutant S51A", "settings": "FP assay; FAM-labeled 13-mer phosphopeptide 100 nM; pH 7.5; n = 3 averaged; ± standard error of fitting; SEM; read-out: dissociation constant (KD) for SHIP2-SH2 S51A", "description": "as §1, §2"}, "[6]": {"target": "T6, SHIP2-SH2 R70A (Homo sapiens, UniProt O15357, R70A)", "T6 construct": "The SHIP2 SH2 domain (hereafter represented by SHIP2-SH2); made in house", "T6 sequence (O15357 21-117 R70A limits assumed)": "T1 sequence (O15357 21-117 limits assumed) with R50A", "assay": "Fluorescence polarization binding, SHIP2-SH2 mutant R70A", "settings": "FP assay; FAM-labeled 13-mer phosphopeptide 100 nM; pH 7.5; n = 3 averaged; ± standard error of fitting; SEM; read-out: dissociation constant (KD) for SHIP2-SH2 R70A", "description": "as §1, §2"}, "[7]": {"target": "T7, SHIP2-SH2 S84A (Homo sapiens, UniProt O15357, S84A)", "T7 construct": "The SHIP2 SH2 domain (hereafter represented by SHIP2-SH2); made in house", "T7 sequence (O15357 21-117 S84A limits assumed)": "T1 sequence (O15357 21-117 limits assumed) with S64A", "assay": "Fluorescence polarization binding, SHIP2-SH2 mutant S84A", "settings": "FP assay; FAM-labeled 13-mer phosphopeptide 100 nM; pH 7.5; n = 3 averaged; ± standard error of fitting; SEM; read-out: dissociation constant (KD) for SHIP2-SH2 S84A", "description": "as §1, §2"}, "[8]": {"target": "T8, SHIP2-SH2 Q107A (Homo sapiens, UniProt O15357, Q107A)", "T8 construct": "The SHIP2 SH2 domain (hereafter represented by SHIP2-SH2); made in house", "T8 sequence (O15357 21-117 Q107A limits assumed)": "T1 sequence (O15357 21-117 limits assumed) with Q87A", "assay": "Fluorescence polarization binding, SHIP2-SH2 mutant Q107A", "settings": "FP assay; FAM-labeled 13-mer phosphopeptide 100 nM; pH 7.5; n = 3 averaged; ± standard error of fitting; SEM; read-out: dissociation constant (KD) for SHIP2-SH2 Q107A", "description": "as §1, §2"}, "[9]": {"target": "T1, SHIP2-SH2 (wild type)", "settings": "summary Figure 6F, value from the authors' earlier NMR/FP study, cited from earlier work", "text": "Figure 6 The binding interface and affinity of SHIP2-SH2 for different native ligands. The binding interface of SHIP2-SH2 for FcgR2B ITIM (A), CagA EPIYA-C/D (B), c-MET C-terminus (C), CagA EPIYA-A/B (D) is colored in blue. The additional interface of SHIP2-SH2 for 13-mer FcgR2B ITIM compared to 8-mer FcgR2B ITIM is colored in green. The interface was drawn according to the residues of SHIP2-SH2 showing a CSP greater than 0.2 ppm in NMR titration experiments with respective ligand. (E) The summarized three regions of SHIP2-SH2 which are differently engaged for binding different ligands are hig ..."}, "[10]": {"target": "SHIP2-SH2", "settings": "6-mer phosphopeptides (-2 to +3), both with Leu at pY+3; cited from earlier work", "text": "When the natural phosphopeptides interacting with SHIP2-SH2 were ranked according to their affinities to SHIP2-SH2, it was seen that the affinity was related to the residue type at the pY+3 position (Figure 6F). The ligands showing high and moderate affinities have Leu (L) or Ile (I) residues at this site, while ligands with a low affinity have Val (V) at this site. These indicate that SHIP2-SH2 may have a preference for the hydrophobic side chain of the residue at the pY+3 site of its Tyr-phosphorylated ligand."}}, "note": "Numbering of substitutions follows the chain as printed. Like-named read-outs stand apart in the source and are kept apart here."}
{"compound": "CC[C@H](C)[C@H](NC(=O)[C@@H](NC(=O)[C@H](C)NC(=O)[C@H](Cc1ccc(OP(=O)(O)O)cc1)NC(=O)[C@@H](NC(=O)[C@@H]1CCCN1C(=O)[C@H](CCC(=O)O)NC(=O)[C@@H]1CCCN1C(=O)[C@@H](N)CO)[C@@H](C)CC)[C@@H](C)O)C(=O)N[C@@H](CC(=O)O)C(=O)N[C@@H](Cc1ccccc1)C(=O)N[C@@H](CC(=O)O)C(=O)N[C@@H](CCC(=O)O)C(=O)O", "note": "[EPIYA-D]", "values": [{"measurement": "Kd", "setting": "[1]", "value": "3.16 ± 0.13", "unit": "µM"}, {"measurement": "Kd", "setting": "[2]", "value": "15.5 ± 2.77", "unit": "µM"}, {"measurement": "Kd", "setting": "[3]", "value": "76.8 ± 5.16", "unit": "µM"}, {"measurement": "Kd", "setting": "[4]", "value": "1140 ± 160", "unit": "nM"}, {"measurement": "Kd", "setting": "[5]", "value": "24.6 ± 2.23", "unit": "µM"}, {"measurement": "Kd", "setting": "[6]", "value": "116 ± 6.61", "unit": "µM"}, {"measurement": "Kd", "setting": "[7]", "value": "2690 ± 190", "unit": "nM"}, {"measurement": "Kd", "setting": "[8]", "value": "3.46 ± 0.2", "unit": "µM"}]}
{"compound": "FcgR2B: Tyr-phosphorylated FcgR2B-ITIM peptide from the authors' previous study (ENTITYSLLMHPD; not fully specified; phospho-Tyr292 (ITIM tyrosine); an 8-mer form (289-296, pY-3 to pY+4) was also used in the cited study)", "values": [{"measurement": "Kd", "setting": "[9]; read-out: Binding Affinities KD for SHIP2-SH2 (FcgR2B ITIM phosphopeptide)", "value": 0.4, "unit": "µM"}]}
{"compound": "GGpYMTL [FcgR2A ITAM, 6-mer FcgR2A ITAM phosphopeptide (−2 to +3) of a previous SPR study]", "values": [{"measurement": "KD for SHIP2-SH2 by SPR (comparison in words)", "setting": "[10]", "value": "comparable KD values"}]}
{"compound": "ITpYSLL [6-mer FcgR2B ITIM, 6-mer FcgR2B ITIM phosphopeptide (-2 to +3) of a previous SPR study]", "values": [{"measurement": "KD for SHIP2-SH2 by SPR (comparison in words)", "setting": "[10]", "value": "comparable KD values"}]}
{"compound": "c-MET: Y1356-phosphorylated c-MET C-terminus peptide from the authors' previous study (NATYVNVK; not fully specified; phospho-Tyr1356)", "values": [{"measurement": "Kd", "setting": "[9]; read-out: Binding Affinities KD for SHIP2-SH2 (c-MET phosphopeptide)", "value": 7.43, "unit": "µM"}]}
